Results published in PubChem BioAssay AID2060907 (Molecular Pharmacology Branch, DTP, NCI, 2025).
Values joined by “and” are separate entries in the source; they are usually repeats but may differ in a detail not shown here. Equal entries are not always repeated.

System: 388556-164-R-J1-PDC complex spheroid viability
Test: Anticancer human tumor 388556-164-R-J1-PDC patient-derived colon adenocarcinoma cell line growth inhibition [RAS]
Settings: for viability, T/C: stronger effect = lower value
Outline: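 Agents were tested in combination matrices in half-log decrements from a top concentration at or near clinical Cmax (10 microM if undetermined). Targets were multi-cell spheroids of tumour lines plus HUVEC and MSC stromal cells.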
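Note: spheroids exposed to compound for 7 days before readout.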
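Throughout, for viability, T/C: 100% = DMSO vehicle control luminescence.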

## Cc1nc(N2CCC3(CC2)COC(C)C3N)c(CO)nc1Sc1ccnc(N)c1Cl (configuration not stated) + C=CC(=O)N1CCN(c2nc(OCC3CCCN3C)nc3c(F)c(-c4nc(N)cc(C)c4C(F)(F)F)c(Cl)cc23)C(C)C1
Curve of first compound, second compound 0.00316 µM
  IC50: 2.82 µM
Curve of first compound, second compound 0.01 µM
  IC50: 3.77 µM
Curve of first compound, second compound 0.0316 µM
  IC50: 6.52 µM
Curve of first compound, second compound 0.1 µM
  IC50: 3.06 µM
Curve of first compound, second compound 0.316 µM
  IC50: 3.34 µM
Curve of first compound, second compound 1 µM
  IC50: 1.52 µM
Second compound 0.00316 µM, first compound 0.0316 µM
  viability, T/C: 88.3%
Second compound 0.00316 µM, first compound 0.1 µM
  viability, T/C: 83.7%
Second compound 0.00316 µM, first compound 0.316 µM
  viability, T/C: 72.8%
Second compound 0.00316 µM, first compound 1 µM
  viability, T/C: 58.3%
Second compound 0.00316 µM, first compound 3.16 µM
  viability, T/C: 49.2%
Second compound 0.00316 µM, first compound 10 µM
  viability, T/C: 45.3%
Second compound 0.01 µM, first compound 0.0316 µM
  viability, T/C: 94.7%
Second compound 0.01 µM, first compound 0.1 µM
  viability, T/C: 82.4%
Second compound 0.01 µM, first compound 0.316 µM
  viability, T/C: 75.7%
Second compound 0.01 µM, first compound 1 µM
  viability, T/C: 61.7%
Second compound 0.01 µM, first compound 3.16 µM
  viability, T/C: 49.7%
Second compound 0.01 µM, first compound 10 µM
  viability, T/C: 43.7%
Second compound 0.0316 µM, first compound 0.0316 µM
  viability, T/C: 86.1%
Second compound 0.0316 µM, first compound 0.1 µM
  viability, T/C: 79.9%
Second compound 0.0316 µM, first compound 0.316 µM
  viability, T/C: 73.3%
Second compound 0.0316 µM, first compound 1 µM
  viability, T/C: 63.3%
Second compound 0.0316 µM, first compound 3.16 µM
  viability, T/C: 55.3%
Second compound 0.0316 µM, first compound 10 µM
  viability, T/C: 47%
Second compound 0.1 µM, first compound 0.0316 µM
  viability, T/C: 95.5%
Second compound 0.1 µM, first compound 0.1 µM
  viability, T/C: 83.5%
Second compound 0.1 µM, first compound 0.316 µM
  viability, T/C: 70.5%
Second compound 0.1 µM, first compound 1 µM
  viability, T/C: 60.9%
Second compound 0.1 µM, first compound 3.16 µM
  viability, T/C: 49.6%
Second compound 0.1 µM, first compound 10 µM
  viability, T/C: 40.6%
Second compound 0.316 µM, first compound 0.0316 µM
  viability, T/C: 97.7%
Second compound 0.316 µM, first compound 0.1 µM
  viability, T/C: 78%
Second compound 0.316 µM, first compound 0.316 µM
  viability, T/C: 70.9%
Second compound 0.316 µM, first compound 1 µM
  viability, T/C: 63.8%
Second compound 0.316 µM, first compound 3.16 µM
  viability, T/C: 54.1%
Second compound 0.316 µM, first compound 10 µM
  viability, T/C: 36.9%
Second compound 1 µM, first compound 0.0316 µM
  viability, T/C: 91.2%
Second compound 1 µM, first compound 0.1 µM
  viability, T/C: 92.5%
Second compound 1 µM, first compound 0.316 µM
  viability, T/C: 68.5%
Second compound 1 µM, first compound 1 µM
  viability, T/C: 56.7%
Second compound 1 µM, first compound 3.16 µM
  viability, T/C: 42.3%
Second compound 1 µM, first compound 10 µM
  viability, T/C: 39.8%

## C#Cc1c(F)ccc2cc(O)cc(-c3ncc4c(N5CC6CCC(C5)N6)nc(OCC56CCCN5CC(F)C6)nc4c3F)c12 (configuration not stated)
Compound 0.0316 µM
  viability, T/C: 84.2% [middle of 8 runs]
Compound 0.1 µM
  viability, T/C: 75.7% [middle of 8 runs]
Compound 0.316 µM
  viability, T/C: 95.4% [middle of 8 runs]
Compound 1 µM
  viability, T/C: 93.8% [middle of 8 runs]
Compound 3.16 µM
  viability, T/C: 87.3% [middle of 7 runs]
Compound 10 µM
  viability, T/C: 70.4% [middle of 8 runs]
Compound alone, run of 09/09/2024
  IC50: > 10 µM

## CCC(CC)c1cc(NC2CCC(N)C2)n2nccc2n1 (configuration not stated)
Compound 0.0316 µM
  viability, T/C: 100% [middle of 4 runs]
Compound 0.1 µM
  viability, T/C: 96.7% [middle of 4 runs]
Compound 0.316 µM
  viability, T/C: 106% (2×) and 109% and 107%
Compound 1 µM
  viability, T/C: 108% [middle of 4 runs]
Compound 10 µM
  viability, T/C: 32% [middle of 4 runs]
Curve of compound
  IC50: 2.97 µM [middle of 4 runs]

## CC(Nc1ccc2c(c1)OCCn1cc(N3C(=O)OCC3C(F)F)nc1-2)C(N)=O (configuration not stated) + CCn1c(-c2cccnc2C(C)OC)c2c3cc(ccc31)N1CCOC(CC(NC(=O)C(C(C)C)N(C)C(=O)C3(F)CCN(C(=O)C#CC(C)(C)N(C)C)CC3)C(=O)N3CCCC(N3)C(=O)OCC(C)(C)C2)C1
Curve of first compound, second compound 0.000949 µM
  IC50: > 10 µM
Curve of first compound, second compound 0.003 µM
  IC50: > 10 µM
Curve of first compound, second compound 0.00949 µM
  IC50: 9.58 µM
Curve of first compound, second compound 0.03 µM
  IC50: 7.84 µM
Curve of first compound, second compound 0.0949 µM
  IC50: > 10 µM
Curve of first compound, second compound 0.3 µM
  IC50: 7.83 µM
Second compound 0.000949 µM, first compound 0.0316 µM
  viability, T/C: 96.7%
Second compound 0.000949 µM, first compound 0.1 µM
  viability, T/C: 83.7%
Second compound 0.000949 µM, first compound 0.316 µM
  viability, T/C: 73%
Second compound 0.000949 µM, first compound 1 µM
  viability, T/C: 79.4%
Second compound 0.000949 µM, first compound 3.16 µM
  viability, T/C: 59.8%
Second compound 0.000949 µM, first compound 10 µM
  viability, T/C: 50.9%
Second compound 0.003 µM, first compound 0.0316 µM
  viability, T/C: 102%
Second compound 0.003 µM, first compound 0.1 µM
  viability, T/C: 82.3%
Second compound 0.003 µM, first compound 0.316 µM
  viability, T/C: 82.7%
Second compound 0.003 µM, first compound 1 µM
  viability, T/C: 67.4%
Second compound 0.003 µM, first compound 3.16 µM
  viability, T/C: 66.7%
Second compound 0.003 µM, first compound 10 µM
  viability, T/C: 50.1%
Second compound 0.00949 µM, first compound 0.0316 µM
  viability, T/C: 87.1%
Second compound 0.00949 µM, first compound 0.1 µM
  viability, T/C: 89.5%
Second compound 0.00949 µM, first compound 0.316 µM
  viability, T/C: 80.7%
Second compound 0.00949 µM, first compound 1 µM
  viability, T/C: 69%
Second compound 0.00949 µM, first compound 3.16 µM
  viability, T/C: 68%
Second compound 0.00949 µM, first compound 10 µM
  viability, T/C: 48.1%
Second compound 0.03 µM, first compound 0.0316 µM
  viability, T/C: 92.4%
Second compound 0.03 µM, first compound 0.1 µM
  viability, T/C: 83.6%
Second compound 0.03 µM, first compound 0.316 µM
  viability, T/C: 80.7%
Second compound 0.03 µM, first compound 1 µM
  viability, T/C: 69.6%
Second compound 0.03 µM, first compound 3.16 µM
  viability, T/C: 66.3%
Second compound 0.03 µM, first compound 10 µM
  viability, T/C: 44.4%
Second compound 0.0949 µM, first compound 0.0316 µM
  viability, T/C: 95.8%
Second compound 0.0949 µM, first compound 0.1 µM
  viability, T/C: 79.1%
Second compound 0.0949 µM, first compound 0.316 µM
  viability, T/C: 72.3%
Second compound 0.0949 µM, first compound 1 µM
  viability, T/C: 71.4%
Second compound 0.0949 µM, first compound 3.16 µM
  viability, T/C: 62.9%
Second compound 0.0949 µM, first compound 10 µM
  viability, T/C: 50.8%
Second compound 0.3 µM, first compound 0.0316 µM
  viability, T/C: 76.7%
Second compound 0.3 µM, first compound 0.1 µM
  viability, T/C: 71%
Second compound 0.3 µM, first compound 0.316 µM
  viability, T/C: 70.8%
Second compound 0.3 µM, first compound 1 µM
  viability, T/C: 64.9%
Second compound 0.3 µM, first compound 3.16 µM
  viability, T/C: 61.4%
Second compound 0.3 µM, first compound 10 µM
  viability, T/C: 46.6%
